Structures can show the parent of a compound that is named as a salt.
Test system: mice
Assay: Neuropharmacological Assay (SmartCube): automated behavioral signature of compound-treated mice compared with a database of reference drug classes
Format: in vivo
Conditions: for AX / HL / MS / SH / AD / AG / AN / AP / CE / PS / UK: SmartCube class probability, 3.0 mg/kg i.p., 15 min before test; for MED / minimal effective dose: minimal effective dose: dose having 45% or more total activity in SmartCube, i.p., if only one dose tested, that dose is shown; for minimal effective dose: Mus musculus, ip, read-out: MED
Outline: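 Compounds in N-methyl-2-pyrrolidone/polyethylene glycol/propylene glycol were given i.p. 15 min before testing, at 3 doses; values shown are for 3.0 mg/kg. Video-captured behaviour was matched by algorithm against reference drug classes, giving a probability per class. MED: lowest dose reaching ≥45% total activity.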

| SMILES | AX | HL | MS | SH | AD (hydrochloride, 3 mg/kg) | AP (hydrochloride, 3 mg/kg) | CE (hydrochloride, 3 mg/kg) | UK (hydrochloride, 3 mg/kg) | MED (hydrochloride) [mpk] | minimal effective dose [mg/kg] | AD | AG | AN | CE | PS | UK | also measured |
| --- | --- | --- | --- | --- | --- | --- | --- | --- | --- | --- | --- | --- | --- | --- | --- | --- | --- |
| NC1CCc2scc(F)c2C1 (single isomer, unassigned) [Compound 191, 3-fluoro-4,5,6,7-tetrahydrobenzothiophen-5-amine hydrochloride] | ND (^ <4%) | ND (^ <4%) | ND (^ <4%) | ND (^ <4%) | ++ (≥24%) | + (≥4%) | + (≥4%) | ND (^ <4%) | 1 |  |  |  |  |  |  |  | AG (hydrochloride, 3 mg/kg): + (≥4%); AN (hydrochloride, 3 mg/kg): + (≥4%); PS (hydrochloride, 3 mg/kg): + (≥4%) |
| NC1CCc2scc(F)c2C1 (single isomer, unassigned) [Compound 192, 3-fluoro-4,5,6,7-tetrahydrobenzothiophen-5-amine hydrochloride] | ND (^ <4%) | ND (^ <4%) | ND (^ <4%) | ND (^ <4%) | ND (^ <4%) | ND (^ <4%) | ND (^ <4%) | +++ (≥49%) | 3 |  |  |  |  |  |  |  | AG (hydrochloride, 3 mg/kg): ND (^ <4%); AN (hydrochloride, 3 mg/kg): ND (^ <4%); PS (hydrochloride, 3 mg/kg): ND (^ <4%) |
| CNC1CCc2scc(C(F)(F)F)c2C1.Cl (single isomer, unassigned) [Compound 194, N-methyl-3-(trifluoromethyl)-4,5,6,7-tetrahydrobenzothiophen-5-amine hydrochloride] | ND (^ <4%) | ND (^ <4%) | ND (^ <4%) | ND (^ <4%) |  | ++++ (≥74%) |  | ND (^ <4%) |  | 3 | ND (^ <4%) | ND (^ <4%) | ND (^ <4%) | ND (^ <4%) | ND (^ <4%) |  |  |
| CNC1CCc2scc(C(F)(F)F)c2C1.Cl (single isomer, unassigned) [Compound 195, N-methyl-3-(trifluoromethyl)-4,5,6,7-tetrahydrobenzothiophen-5-amine hydrochloride] | ND (^ <4%) | ND (^ <4%) | ND (^ <4%) | ND (^ <4%) |  | ND (^ <4%) |  | + (≥4%) | >3 |  | ND (^ <4%) | ND (^ <4%) | ND (^ <4%) | ND (^ <4%) | ND (^ <4%) |  |  |
| CNC1CCc2c(Cl)csc2C1 (single isomer, unassigned) [Compound 198, 3-chloro-N-methyl-4,5,6,7-tetrahydrobenzothiophen-6-amine hydrochloride] | ND (^ <4%) |  | ND (^ <4%) | ND (^ <4%) |  | ++++ (≥74%) |  |  |  | < 3 | ND (^ <4%) | ND (^ <4%) | ND (^ <4%) | ND (^ <4%) | ND (^ <4%) | ND (^ <4%) | HL (hydrochloride, 3 mg/kg): ND (^ <4%) |
| CNC1CCc2c(Cl)csc2C1 (single isomer, unassigned) [Compound 199, 3-chloro-N-methyl-4,5,6,7-tetrahydrobenzothiophen-6-amine hydrochloride] | ND (^ <4%) |  | ND (^ <4%) | ND (^ <4%) |  | ND (^ <4%) |  |  |  |  | ND (^ <4%) | ND (^ <4%) | ND (^ <4%) | ND (^ <4%) | ND (^ <4%) | ND (^ <4%) | HL (hydrochloride, 3 mg/kg): + (≥4%); MED: <3 mpk |
| CNC1CCc2c(F)sc(C)c2C1 (single isomer, unassigned) [Compound 210, 1-fluoro-N, 3-dimethyl-4,5,6,7-tetrahydro-2-benzothiophen-5-amine hydrochloride] | ND (^ <4%) | ND (^ <4%) | ND (^ <4%) | ND (^ <4%) |  | + (≥4%) |  | +++ (≥49%) |  | 3 | ND (^ <4%) | ND (^ <4%) | ND (^ <4%) | ND (^ <4%) | ND (^ <4%) |  |  |
| CNC1CCc2c(F)sc(C)c2C1 (single isomer, unassigned) [Compound 211, 1-fluoro-N, 3-dimethyl-4,5,6,7-tetrahydro-2-benzothiophen-5-amine hydrochloride] | ND (^ <4%) | ND (^ <4%) | ND (^ <4%) | ND (^ <4%) |  | ++++ (≥74%) |  | ND (^ <4%) | <3 |  | ND (^ <4%) | ND (^ <4%) | ND (^ <4%) | ND (^ <4%) | ND (^ <4%) |  |  |
| NC1CCc2sccc2C1 (single isomer, unassigned) [Compound 212, 4,5,6,7-tetrahydrobenzothiophen-5-amine hydrochloride] |  | ND (^ <4%) | ND (^ <4%) |  | +++ (≥49%) |  | + (≥4%) |  |  | 1 |  | ND (^ <4%) | ND (^ <4%) |  | ND (^ <4%) | ND (^ <4%) | AP: + (≥4%); AX (hydrochloride, 3 mg/kg): + (≥4%); SH (hydrochloride, 3 mg/kg): ND (^ <4%) |
| NC1CCc2sccc2C1 (single isomer, unassigned) [Compound 213, 4,5,6,7-tetrahydrobenzothiophen-5-amine hydrochloride] |  | ND (^ <4%) | ND (^ <4%) |  | + (≥4%) |  | ND (^ <4%) |  |  |  |  | ND (^ <4%) | ND (^ <4%) |  | ND (^ <4%) | ND (^ <4%) | AP: + (≥4%); AX (hydrochloride, 3 mg/kg): +++ (≥49%); SH (hydrochloride, 3 mg/kg): + (≥4%); MED: 1 mpk |
| CNC1CCc2sc(C)cc2C1 (single isomer, unassigned) [Compound 223, N, 2-dimethyl-4,5,6,7-tetrahydrobenzothiophen-5-amine hydrochloride] | ND (^ <4%) | ND (^ <4%) | ND (^ <4%) | ND (^ <4%) |  | ND (^ <4%) |  | ++ (≥24%) |  | > 3 | ND (^ <4%) | ND (^ <4%) | ND (^ <4%) | ND (^ <4%) | ND (^ <4%) |  |  |
| CNC1CCc2sc(C)cc2C1 (single isomer, unassigned) [Compound 224, N, 2-dimethyl-4,5,6,7-tetrahydrobenzothiophen-5-amine hydrochloride] | ND (^ <4%) | ND (^ <4%) | ND (^ <4%) | ND (^ <4%) |  | ++++ (≥74%) |  | ND (^ <4%) | 3 |  | ND (^ <4%) | ND (^ <4%) | ND (^ <4%) | ND (^ <4%) | ND (^ <4%) |  |  |

— patent US20260274814A1, “THIENYL COMPOUNDS FOR THE TREATMENT OF A CENTRAL NERVOUS SYSTEM DISEASE OR DISORDER” (Coreterra Therapeutics, Inc., priority 2023, published 2026)
